Data on twelve compounds can be found in patent publication US12246076B2, “Radiolabeled compounds for in vivo imaging of gastrin-releasing peptide receptor (GRPR) and treatment of GRPR-related disorders” (PROVINCIAL HEALTH SERVICES AUTHORITY, priority 2022, dated 2025).

Peptide text beside a SMILES is read from it.

Series [1] deals with T1, GRPR (Homo sapiens, UniProt P30550).
T1 construct: endogenous in cells; host or cells: PC-3 prostate cancer cells
The series is described as follows: In vitro competition binding assay, displacement of [^125I-Tyr^4]bombesin on GRPR-expressing PC-3 cells. Conditions: n = 2-3, read-out: Binding affinities Ki Mean. The method, then:
PC-3 cells were seeded at 2×10^5 cells/well in 24-well poly-D-lysine plates 24-48 hours prior to the experiment. The growth medium was replaced by 400 μL of reaction medium (RPMI 1640 containing 2 mg/mL BSA, 4.8 mg/mL HEPES, 1 U/mL penicillin G and 1 μg/mL streptomycin). Cells were incubated for 30-60 min at 37° C. […] The cells were incubated with moderate agitation for 1 h at 27° C., washed twice with ice-cold PBS, harvested by trypsinization, and measured for radioactivity on the gamma counter. Data were analyzed using nonlinear regression (one binding site model for competition assay) with GraphPad Prism 8.
In vitro competition binding assays were performed according to the procedure outlined in Example 1.

A short description of series [2]: In vivo plasma stability, radio-HPLC of plasma at 15 min p.i. Conditions: healthy male NRG mice (n=3), 15 min post-injection. The method, then:
In vivo plasma stability studies were conducted for ^68Ga-labeled tracers to evaluate metabolic stability at 15 min p.i. Approximately 5.56 to 15.3 MBq of ^68Ga-LW01025, ^68Ga-LW01029, ^68Ga-LW01107, ^68Ga-LW01108, ^68Ga-LW01110, ^68Ga-LW01102, or ^68Ga-LW01142 were injected via tail vein into three male NRG mice, respectively. At 15 min p.i., mice were sedated and euthanized and their blood and urine were collected. The plasma was extracted from whole blood with ACN, vortexed, centrifuged, and the supernatant collected. The plasma and urine were analyzed with radio-HPLC (C18 analytical column; flow rate: 2.0 mL/min). The HPLC condition was same as the HPLC condition for quality control.
The in vivo studies were similarly performed according to the procedure set forth in Example 1. […] The present invention has been described with regard to one or more embodiments.

A short description of series [3]: Ex vivo biodistribution in PC-3 tumor-bearing mice. Conditions: male, mouse, iv, total radioactivity, 1 h post-injection, n = 4; for tissue uptake at 1 h: mice bearing PC-3 tumor xenografts; for tissue to tissue ratio at 1 h: uptake ratio.
Description: All imaging and biodistribution studies were performed using male NOD.Cg-Rag1^tm1MoM II2rg^tm1WI/SzJ (NRG) mice and conducted according to the guidelines established by the Canadian Council on Animal Care and approved by Animal Ethics Committee of the University of British Columbia. For tumor inoculations, mice were anesthetized by inhalation with 2% isoflurane in oxygen and implanted subcutaneously with 5×10^6 PC-3 cells below the left shoulder. Imaging and biodistribution studies were performed only after tumors grew to 5-8 mm in diameter.
For PET/CT imaging studies, ˜3-4 MBq of the ^68Ga-labeled tracer was injected through the tail vein. Mice were allowed to recover and roam freely in the cages after injecting the tracer. At 45 min post-injection (p.i.), mice were sedated again and positioned on the scanner. First, a 10 min CT scan was conducted for localization and attenuation correction for reconstruction of PET images, before a 10 min PET image was acquired. Heating pads were used during the entire procedure to keep the mice warm. For ex vivo biodistribution studies, mice were injected with ˜1.5-3 MBq of the ^68Ga-labeled tracer. At 1 h p.i., mice were euthanized, blood was drawn from heart, and organs/tissues of interest were collected, rinsed with PBS, blotted dry, weighed, and counted using an automated gamma counter. The uptake in each organ/tissue was normalized to the injected dose and expressed as the percentage of the injected dose per gram of tissue (% ID/g).
All imaging and biodistribution studies were performed using male NOD.Cg-Rag1tm1Mom II2rgtm1WjI/SzJ (NRG) mice and conducted according to the guidelines established by the Canadian Council on Animal Care and approved by Animal Ethics Committee of the University of British Columbia. For tumor inoculations, mice were anesthetized by inhalation with 2% isoflurane in oxygen and implanted subcutaneously with 5×10^6 PC-3 cells below the left shoulder. Imaging and biodistribution studies were performed only after tumors grew to 5-8 mm in diameter.
For PET/CT imaging studies, ˜5 MBq of the ^68Ga-labeled tracer was injected through the tail vein. Mice were allowed to recover and roam freely in the cages after injecting the tracer. At 45 min post-injection (p.i.), mice were sedated again and positioned on the scanner. First, a 10 min CT scan was conducted for localization and attenuation correction for reconstruction of PET images, before a 10 min PET image was acquired. Heating pads were used during the entire procedure to keep the mice warm. For ex vivo biodistribution studies, mice were injected with ˜3 MBq of the 68Ga-labeled tracer. At 1 h p.i., mice were euthanized, blood was drawn from heart, and organs/tissues of interest were collected, rinsed with PBS, blotted dry, weighed, and counted using an automated gamma counter.
Series [4] deals with T1, GRPR. The settings on record: literature (Heimbrook 1991; Lin 1995); cited from earlier work.
Setting [5] is: NRG, PC-3 tumor, Biodistribution PC3 tumor Mean.
Setting [6] is: NRG, adrenal, Biodistribution Adrenal Mean.
[7] abbreviates: NRG, bone, Biodistribution Bone Mean.
The mark [8] stands for this setting: NRG, brain, Biodistribution Brain Mean.
Where [9] appears, read: NRG, fat, Biodistribution Fat Mean.
[10] abbreviates: NRG, heart, Biodistribution Heart Mean.
Where [11] appears, read: NRG, kidneys, Biodistribution Kidneys Mean.
Setting [12] is: NRG, large intestine, Biodistribution Large Intestine Mean.
The mark [13] stands for this setting: NRG, liver, Biodistribution Liver Mean.
Where [14] appears, read: NRG, lungs, Biodistribution Lungs Mean.
The mark [15] stands for this setting: NRG, muscle, Biodistribution Muscle Mean.
Setting [16] is: NRG, pancreas, Biodistribution Pancreas Mean.
[17] abbreviates: NRG, small intestine, Biodistribution Small Intestine Mean.
The mark [18] stands for this setting: NRG, spleen, Biodistribution Spleen Mean.
Setting [19] is: NRG, stomach, Biodistribution Stomach Mean.
Setting [20] is: NRG, testes, Biodistribution Testes Mean.
Setting [21] is: NRG, whole blood, Biodistribution Blood Mean.

T1 sequence (P30550 whole entry): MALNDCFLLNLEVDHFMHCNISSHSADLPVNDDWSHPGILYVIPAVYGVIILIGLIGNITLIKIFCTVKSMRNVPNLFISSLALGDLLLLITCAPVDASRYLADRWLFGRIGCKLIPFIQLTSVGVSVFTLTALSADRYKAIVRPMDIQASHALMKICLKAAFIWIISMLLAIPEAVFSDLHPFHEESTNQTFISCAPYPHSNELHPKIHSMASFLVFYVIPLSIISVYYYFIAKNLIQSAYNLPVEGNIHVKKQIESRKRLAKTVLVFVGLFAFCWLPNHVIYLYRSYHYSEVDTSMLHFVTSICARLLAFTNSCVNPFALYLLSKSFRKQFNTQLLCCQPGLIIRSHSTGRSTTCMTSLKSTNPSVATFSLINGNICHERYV

By Ki is commonly meant the dissociation constant of the complex between target and ligand, obtained from inhibition or displacement. Take `CC(C)C[C@H](NC(=O)[C@H](Cc1c[nH]cn1)NC(=O)CNC(=O)[C@@H](NC(=O)[C@H](C)NC(=O)[C@H](Cc1c[nH]c2cc(F)ccc12)NC(=O)[C@H](CCC(N)=O)NC(=O)[C@H](N)Cc1ccccc1)C(C)C)C(=O)N1CSC[C@H]1C(N)=O` [LW01175]: the inhibition constant (Ki) at GRPR [1] worked out at 46.9 nM.
The same measure, in the same setting: in the case of `CC(C)C[C@H](NC(=O)[C@H](Cc1c[nH]cn1)NC(=O)CNC(=O)[C@@H](NC(=O)[C@H](C)NC(=O)[C@H](Cc1c[nH]c2c(F)cccc12)NC(=O)[C@H](CCC(N)=O)NC(=O)[C@H](N)Cc1ccccc1)C(C)C)C(=O)N1CSC[C@H]1C(N)=O` [LW01177, D-Phe-Gln-7-F-Trp-Ala-Val-Gly-His-Leu-Thz-NH2] it was 9.38 nM; in that of `CC(C)C[C@H](NC(=O)[C@H](Cc1c[nH]cn1)NC(=O)CNC(=O)[C@@H](NC(=O)[C@H](C)NC(=O)[C@H](Cc1c[nH]c2cccc(F)c12)NC(=O)[C@H](CCC(N)=O)NC(=O)[C@H](N)Cc1ccccc1)C(C)C)C(=O)N1CSC[C@H]1C(N)=O` [LW01180], 43.4 nM.
As for `Cc1cccc2[nH]cc(C[C@H](NC(=O)[C@H](CCC(N)=O)NC(=O)[C@H](N)Cc3ccccc3)C(=O)N[C@@H](C)C(=O)N[C@H](C(=O)NCC(=O)N[C@@H](Cc3c[nH]cn3)C(=O)N[C@@H](CC(C)C)C(=O)N3CSC[C@H]3C(N)=O)C(C)C)c12` [LW01183], the inhibition constant (Ki) at GRPR [1] is 25.9 nM.
In the case of `Cc1cccc2c(C[C@H](NC(=O)[C@H](CCC(N)=O)NC(=O)[C@H](N)Cc3ccccc3)C(=O)N[C@@H](C)C(=O)N[C@H](C(=O)NCC(=O)N[C@@H](Cc3c[nH]cn3)C(=O)N[C@@H](CC(C)C)C(=O)N3CSC[C@H]3C(N)=O)C(C)C)c[nH]c12` [LW02007], at GRPR [1], the inhibition constant Ki was determined as 13.5 nM.
With `Cc1[nH]c2ccccc2c1C[C@H](NC(=O)[C@H](CCC(N)=O)NC(=O)[C@H](N)Cc1ccccc1)C(=O)N[C@@H](C)C(=O)N[C@H](C(=O)NCC(=O)N[C@@H](Cc1c[nH]cn1)C(=O)N[C@@H](CC(C)C)C(=O)N1CSC[C@H]1C(N)=O)C(C)C` [LW02009, D-Phe-Gln-2-Me-Trp-Ala-Val-Gly-His-Leu-Thz-NH2], the inhibitory constant (Ki) at GRPR [1] is 11.5 nM.
Same read-out and setting: under `CC(C)C[C@H](NC(=O)[C@H](Cc1c[nH]cn1)NC(=O)CNC(=O)[C@@H](NC(=O)[C@H](C)NC(=O)[C@H](Cc1c[nH]c2ncccc12)NC(=O)[C@H](CCC(N)=O)NC(=O)[C@H](N)Cc1ccccc1)C(C)C)C(=O)N1CSC[C@H]1C(N)=O` [LW02013] stands 166 nM; under `CC(C)C[C@H](NC(=O)[C@H](Cc1c[nH]cn1)NC(=O)CNC(=O)[C@@H](NC(=O)[C@H](C)NC(=O)[C@H](Cc1csc2ccccc12)NC(=O)[C@H](CCC(N)=O)NC(=O)[C@H](N)Cc1ccccc1)C(C)C)C(=O)N1CSC[C@H]1C(N)=O` [LW02015] (HELM PEPTIDE1{[dF].Q.[O=C([C@H](Cc1csc2ccccc12)N[*:1])[*:2]].A.V.G.H.L.[O=C([C@@H]1CSCN1[*:1])[*:2]].[am]}$$$$V2.0), 53.1 nM.
Consider `CC(C)C[C@H](NC(=O)[C@H](Cc1c[nH]cn1)NC(=O)CNC(=O)[C@@H](NC(=O)[C@H](C)NC(=O)[C@H](Cc1c[nH]c2ccccc12)NC(=O)[C@H](CCC(N)=O)NC(=O)[C@H](N)Cc1ccccc1)C1CC1)C(=O)N1CSC[C@H]1C(N)=O` [LW02016], for which, at GRPR [1], the Ki turned out to be 202 nM.
For orientation: tissue uptake means the share of the injected amount in each gram of the tissue. Take `CC(C)C[C@@H](CN1CSC[C@H]1C(N)=O)NC(=O)[C@H](Cc1c[nH]cn1)NC(=O)CNC(=O)[C@@H](NC(=O)[C@H](C)NC(=O)[C@H](Cc1c[nH]c2ccccc12)NC(=O)[C@H](CCC(N)=O)NC(=O)[C@@H](Cc1ccccc1)NC(=O)CN1CCC(NC(=O)CN2CCN(CC(=O)O)CCN(CC(=O)O)CCN(CC(=O)O)CC2)CC1)C(C)C` [^68Ga-LW01045, metal not drawn]: in series [2], the “remaining intact in plasma” value came out at 83.3±1.45%. Further, the tissue uptake at 1 h in series [3] (setting [5]) worked out at 10.2 %ID/g; in series [3] (setting [6]), 0.57 %ID/g; in series [3] (setting [7]) it was 0.19 %ID/g; in series [3] (setting [8]) it was 0.05 %ID/g; in series [3] (setting [9]), 0.09 %ID/g; in series [3] (setting [10]), 0.27 %ID/g. The tissue uptake at 1 h in series [3] (setting [11]) is 2.51 %ID/g; in series [3] (setting [12]), 0.37 %ID/g; in series [3] (setting [13]) it was 2.61 %ID/g; in series [3] (setting [14]), 0.75 %ID/g; in series [3] (setting [15]) it was 0.15 %ID/g; in series [3] (setting [16]), 2.81 %ID/g. Besides, the tissue uptake at 1 h in series [3] (setting [17]) worked out at 1.04 %ID/g; in series [3] (setting [18]) it was 0.47 %ID/g; in series [3] (setting [19]), 0.32 %ID/g; in series [3] (setting [20]), 0.19 %ID/g; in series [3] (setting [21]), 0.76 %ID/g.
For the compound `CC(C)C[C@@H](CN1CSC[C@H]1C(N)=O)NC(=O)[C@H](Cc1cnc[nH]1)NC(=O)CN(C)C(=O)[C@@H](NC(=O)[C@H](C)NC(=O)[C@H](Cc1c[nH]c2ccccc12)NC(=O)[C@H](CCC(N)=O)NC(=O)[C@@H](Cc1ccccc1)NC(=O)CN1CCC(NC(=O)CN2CCN(CC(=O)O)CCN(CC(=O)O)CCN(CC(=O)O)CC2)CC1)C(C)C` [^68Ga-LW01090, metal not drawn], in series [2], the “remaining intact in plasma” value is given as 67.1±4.76%. The tissue to tissue ratio at 1 h in series [3] (NOD.Cg-Rag1tm1Mom Il2rgtm1Wjl/SzJ (NRG), tumor and kidney, Tumor/kidney Mean) turned out to be 4.48; in series [3] (NOD.Cg-Rag1tm1Mom Il2rgtm1Wjl/SzJ (NRG), tumor and pancreas, Tumor/pancreas Mean), 7.95; in series [3] (NRG, PC-3 tumor / bone, Tumor/bone Mean), 175; in series [3] (NRG, PC-3 tumor / muscle, Tumor/muscle Mean), 82.3. Further, the tissue uptake at 1 h is 15.7 %ID/g in series [3] (setting [5]); 0.58 %ID/g in series [3] (setting [6]); 0.1 %ID/g in series [3] (setting [7]); 0.03 %ID/g in series [3] (setting [8]); 0.11 %ID/g in series [3] (setting [9]); 0.24 %ID/g in series [3] (setting [10]). Further, the tissue uptake at 1 h in series [3] (setting [11]) turned out to be 3.52 %ID/g; in series [3] (setting [12]), 0.41 %ID/g; in series [3] (setting [13]), 0.64 %ID/g; in series [3] (setting [14]), 0.55 %ID/g; in series [3] (setting [15]), 0.2 %ID/g; in series [3] (setting [16]), 1.98 %ID/g. The tissue uptake at 1 h was 0.66 %ID/g in series [3] (setting [17]); 0.3 %ID/g in series [3] (setting [18]); 0.4 %ID/g in series [3] (setting [19]); 0.23 %ID/g in series [3] (setting [20]); 0.76 %ID/g in series [3] (setting [21]).
Turning to litorin, at GRPR [4], the “binding affinity to the GRPR” value is reported as “very strong binding affinity”.
